Converted amounts (≈) assume the structure as drawn. “And” between values parts separate entries of the source, which are not always exact repeats. Equal entries are not always repeated. Where two headings read alike, the source gives them in different places.
Columns and labels:
[1] = tested on: strept. faecalis ATCC 8043; assay: Bactericidal activity in vitro, cylinder test (Table 1); format: cell-based; details: Enterococcus faecalis, ATCC8043; 18 h at 37° C., average of three individual measurements; read-out: Bactericidal action (MIC)
[2] = tested on: ps. aeruginosa NCTC 10662; assay: as above; format: cell-based; details: Pseudomonas aeruginosa, NCTC10662; 18 h at 37° C., average of three individual measurements; read-out: Bactericidal action (MIC)
[3] = tested on: proteus mirabilis b, Penicillinase-forming substance; assay: Bactericidal MIC-values, 50 strains (Table 2); format: cell-based; details: of 50 strains; MIC steps 2000 to 0.0002 γ/ml, counts in descending MIC order
[4] = tested on: strept. faecalis ATCC 10541; assay: Bactericidal activity in vitro, cylinder test (Table 1); format: cell-based; details: Enterococcus faecalis, ATCC10541; 18 h at 37° C., average of three individual measurements; read-out: Bactericidal action (MIC)
[5] = tested on: staphyl. aur. b, Penicillinase-forming substance; assay: Bactericidal MIC-values, 50 strains (Table 2); format: cell-based; details: of 50 strains; MIC steps 2000 to 0.0002 γ/ml, counts in descending MIC order
[6] = tested on: aerobacter aeroges; assay: Bactericidal MIC-values, 50 strains (Table 2); format: cell-based; details: of 50 strains; MIC steps 2000 to 0.0002 γ/ml, counts in descending MIC order
[7] = tested on: strains which form Penicillinase; assay: Bactericidal activity against penicillinase-forming strains (statement); format: cell-based; details: ampicillin alone
[8] = tested on: strept. faecalis ATCC 19433; assay: Bactericidal activity in vitro, cylinder test (Table 1); format: cell-based; details: Enterococcus faecalis, ATCC19433; 18 h at 37° C., average of three individual measurements; read-out: Bactericidal action (MIC)
[9] = tested on: stapyloc. aur. ATCC 11522; assay: as above; format: cell-based; details: 18 h at 37° C., average of three individual measurements; read-out: Bactericidal action (MIC)
[10] = tested on: h. influencae ATCC 19418; assay: as above; format: cell-based; details: 18 h at 37° C., average of three individual measurements; read-out: Bactericidal action (MIC)
[11] = tested on: strept. pneumon. ATCC 6302; assay: as above; format: cell-based; details: 18 h at 37° C., average of three individual measurements; read-out: Bactericidal action (MIC)
[12] = tested on: escherichia coli NCTC 10418; assay: as above; format: cell-based; details: NCTC10418, 18 h at 37° C., average of three individual measurements, read-out: Bactericidal action (MIC)
[13] = tested on: fungi; assay: Fungicidal activity (statement); format: cell-based; details: ampicillin alone
Method: The MIC-values for the fungicidal activity of the combination product were determined according to the provisions of the American Soc. of Clinical Microbiology, Manual of Clinical Microbiology, 2nd Edition (Washington, D.C.).

[14] = tested on: strept. pyogenes ATCC 8668; assay: Bactericidal activity in vitro, cylinder test (Table 1); format: cell-based; details: Streptococcus pyogenes, ATCC8668; 18 h at 37° C., average of three individual measurements; read-out: Bactericidal action (MIC)
[15] = tested on: strept. pneumon. ATCC 6301; assay: as above; format: cell-based; details: 18 h at 37° C., average of three individual measurements; read-out: Bactericidal action (MIC)
[16] = tested on: psuedomonas aeruginosa; assay: Bactericidal MIC-values, 50 strains (Table 2); format: cell-based; details: of 50 strains; MIC steps 2000 to 0.0002 γ/ml, counts in descending MIC order
[17] = tested on: stapyloc. aur. ATCC 6538 P (Penicillinase forming substance); assay: Bactericidal activity in vitro, cylinder test (Table 1); format: cell-based; details: 18 h at 37° C., average of three individual measurements
[18] = tested on: staphyloc. aur. NCTC 6571; assay: as above; format: cell-based; details: 18 h at 37° C., average of three individual measurements; read-out: Bactericidal action (MIC)
[19] = 0.5 mg Dexam 3 × daily perorally, after 5 days
[20] = Clinical test of Norfenefrin and Norfenefrin + glucoprotein, blood pressure (Table 6); format: in vivo, patients; details: 14th day, 3.0 mg Norfenefrin once daily
[21] = Clinical test of phenylbutazone and phenylbutazone + glucoprotein, BSG (Table 5); format: in vivo, patients; details: 1.0 g phenylbutazone 3 × daily orally, after 8 days
[22] = three hours after medication, individual patient

SMILES: CC1(C)S[C@@H]2[C@H](NC(=O)[C@H](N)c3ccccc3)C(=O)N2[C@H]1C(=O)O [Ampicillin, D-(2-amino-2-phenylacetamido)-3,3-dimethyl-7-oxo-4-thia-1-azabicyclo-[3,2,0]-heptane-2-carboxylic acid]
- MIC [1]: 2 µg/mL (≈ 5.72 µM)
- MIC [2]: 240 µg/mL (≈ 687 µM)
- Bactericidal MIC-values: number of strains at each MIC step [3]: 50
- MIC [4]: 1 µg/mL (≈ 2.86 µM)
- Bactericidal MIC-values: number of strains at each MIC step [5]: 50
- Bactericidal MIC-values: number of strains at each MIC step [6]: 50
- action against Penicillinase-forming strains [7]: completely ineffective
- MIC [8]: 2 µg/mL (≈ 5.72 µM)
- MIC [9]: 0.06 µg/mL (≈ 0.172 µM)
- MIC [10]: 0.25 µg/mL (≈ 0.715 µM)
- MIC [11]: 0.06 µg/mL (≈ 0.172 µM)
- MIC [12]: 8 µg/mL (≈ 22.9 µM)
- fungicidal activity [13]: no fungicidal activity which can be evaluated in practice
- MIC [14]: 0.03 µg/mL (≈ 0.0859 µM)
- MIC [15]: 0.06 µg/mL (≈ 0.172 µM)
- Bactericidal MIC-values: number of strains at each MIC step [16]: 50
- Bactericidal action (MIC) [17]: resistant
- MIC [18]: 0.06 µg/mL (≈ 0.172 µM)

SMILES: C[C@@H]1C[C@H]2[C@@H]3CCC4=CC(=O)C=C[C@]4(C)[C@@]3(F)[C@@H](O)C[C@]2(C)[C@@]1(O)C(=O)CO [Dexam, dexamethasone]
- ASLO, average ([19]; average of 10 patients): 220 i.E.
- BSG after 1 h., average ([19]; average of 10 patients): 23.5
- BSG after 2 h., average ([19]; average of 10 patients): 38.8
- ASLO ([19]; individual patient): 200 i.E. and 100 i.E. and 300 i.E.
- BSG after 1 h. ([19]; individual patient): 25 and 20 and 30 and 24 and 22
- BSG after 2 h. ([19]; individual patient): 30 and 35 and 40 and 45 and 50 and 42 and 38 and 36 and 34

SMILES: NCC(O)c1cccc(O)c1 (centres unmarked) [Norfenefrin]
- diastolic blood pressure [20, 22]: 70 and 75 and 80
- systolic blood pressure [20, 22]: 120 and 125 and 130
- diastolic blood pressure, average ([20]; average of 10 patients): 76.5
- systolic blood pressure, average ([20]; average of 10 patients): 126.0

SMILES: CCCCC1C(=O)N(c2ccccc2)N(c2ccccc2)C1=O [phenylbutazone]
- BSG after 1 h., average ([21]; average of 10 patients): 33.2
- BSG after 2 h., average ([21]; average of 10 patients): 57.9
- BSG after 1 h. ([21]; individual patient): 38 and 40 and 35 and 30 and 28 and 32 and 25
- BSG after 2 h. ([21]; individual patient): 62 and 60 and 50 and 45 and 58
